From patent publication US6265376A, “Insecticidal plectoxins from plectreurys tristis” (Novartis AG, priority 1995, dated 2001) come the findings set out here.

The test system of one test is M. sexta. The experiment in a line: Injection of plectoxins into insect larvae (toxicity). Format: in vivo, Manduca sexta. On the procedure:
(§1) Polypeptides isolated from or those showing substantial homology to those isolated from the venom of Plectreurys tristis are useful as insecticidal agents. In particular, they are useful insecticidal agents against insects of the order Lepidoptera, for example, Heliothis virescens, Autographa californica, and the insects of the genus Spodoptera. Both the purified plectoxin and viruses transformed to produce the plectoxin are assayed for bioactivity on larvae including: tobacco hornworms (Manduca sexta), tobacco budworms (Heliothis virescens) and beet armyworm (Spodoptera exizua).
(§2) Venom from P. tristis is obtained from Spider Pharm, Black Canyon City, Az. Crude venom (approximately 200 μl per injection) is fractionated by reversed-phase liquid chromatography (LC) using the following conditions: a Perkin Elmer Model 410 Bio solvent delivery system; 5 ml injection loop; Hewlett Packard Model 1040M diode array detector at 220 and 280 nm; Aquapore ODS column, 22×1 cm (Brownlee Labs, Santa Clara, Calif.); 4.5 ml/min; acetonitrile (MeCN) in a constant 0.1% trifluoroacetic acid, 0% MeCN for 5 min, then linear gradient of 0 to 60% MeCN over 55 min. Similar fractions from several runs are combined and portions are removed for bioassays. […]

The test system of another test is H. virescens. The test is described as above. The test is classed as in vivo, Heliothis virescens. On the procedure:
as §1, §2

The next test has as its system S. exigua. The description is as above. The test is classed as in vivo, Spodoptera exigua. The method, then:
as §1
Various plectoxins isolated from venom are injected into three different insect larvae. […] ED50 is the dose which is effective to paralyze 50% of the larvae at one hour. Values with an asterisk denote duplicate analysis with samples from different milking lots.

The subject of a further test is insects. Put plainly: Insect toxicity (paralysis and/or death of test larvae), general statements. Format: in vivo. Particulars: injection of a number of different insects. On the procedure: as §1
[1] abbreviates: dose paralyzing 50% of larvae at one hour.
[2] abbreviates: lethal dose for 50% of treated larvae at 24 hours.

Consider “Plt-VI (AVKCIGWQETCNGNLPCCNECVMCECNIMGQNCRCNHPKATNECES)”, for which the ED50 with M. sexta (setting [1]) stood at 0.10 µg/g; with H. virescens (setting [1]) it was 0.21 µg/g; in the test on S. exigua (setting [1]), 0.32 µg/g. In addition, the LD50 in the test with M. sexta (setting [2]) is 0.15 µg/g; with H. virescens (setting [2]), 1.2 µg/g; in the test with S. exigua (setting [2]), greater than 10 µg/g. For the same substance, in the test with insects, the “paralytic activity upon injection” value is reported as “very high level of paralytic activity”.
